Data taken from patent US20170008888A1 (KYORIN PHARMACEUTICAL CO., LTD., priority 2014, published 2017).

Experiments:
Assay type in all cases: binding
ACK = target: T1, ACK (Homo sapiens, UniProt Q07912); assay: Probe-based (AX9989) kinase profiling in Jurkat lysate: ACK; conditions: screening concentration 1.0 μM; read-out: Kinase inhibition % at indicated screening concentration: ACK
T1 construct: screened for activity against several kinases in Jurkat cells; endogenous in cells; host or cells: Jurkat cell lysate
T1 sequence (Q07912 whole entry): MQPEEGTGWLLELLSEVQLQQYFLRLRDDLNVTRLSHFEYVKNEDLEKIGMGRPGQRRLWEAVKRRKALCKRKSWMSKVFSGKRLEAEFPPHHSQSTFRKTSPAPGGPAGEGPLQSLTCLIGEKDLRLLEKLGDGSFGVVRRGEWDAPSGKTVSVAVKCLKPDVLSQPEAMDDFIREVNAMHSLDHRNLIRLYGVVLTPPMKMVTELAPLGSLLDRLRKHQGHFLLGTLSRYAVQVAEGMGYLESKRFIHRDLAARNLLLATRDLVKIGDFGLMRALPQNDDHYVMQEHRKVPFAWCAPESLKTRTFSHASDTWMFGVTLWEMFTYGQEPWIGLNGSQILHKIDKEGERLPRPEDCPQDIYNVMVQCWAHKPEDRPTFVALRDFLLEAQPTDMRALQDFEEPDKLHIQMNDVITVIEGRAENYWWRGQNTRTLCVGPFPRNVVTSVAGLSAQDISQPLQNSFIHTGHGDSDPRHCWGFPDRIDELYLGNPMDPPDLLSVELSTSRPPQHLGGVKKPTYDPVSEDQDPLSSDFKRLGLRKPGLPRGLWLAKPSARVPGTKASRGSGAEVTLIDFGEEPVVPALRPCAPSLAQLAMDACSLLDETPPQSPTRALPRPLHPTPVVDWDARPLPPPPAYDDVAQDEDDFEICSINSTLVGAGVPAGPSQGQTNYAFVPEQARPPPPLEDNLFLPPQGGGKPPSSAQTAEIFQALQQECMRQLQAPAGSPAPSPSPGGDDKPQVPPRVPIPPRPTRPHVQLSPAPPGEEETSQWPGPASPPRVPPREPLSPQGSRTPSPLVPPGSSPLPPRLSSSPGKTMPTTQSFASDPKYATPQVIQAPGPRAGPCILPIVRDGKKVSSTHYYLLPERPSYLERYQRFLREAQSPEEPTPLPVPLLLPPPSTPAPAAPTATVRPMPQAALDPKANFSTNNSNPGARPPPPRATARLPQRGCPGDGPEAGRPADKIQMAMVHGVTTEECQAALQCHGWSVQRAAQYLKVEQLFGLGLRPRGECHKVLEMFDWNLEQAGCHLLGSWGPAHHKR
Protocol: (§1) In this example, potency of the compounds as ERK5 inhibitors was assessed, and the compounds were screened for activity against several kinases in Jurkat cells.
(§2) Jurkat cell pellets were resuspended in four volumes of lysis buffer (50 mM HEPES pH 7.5, 150 mM NaCl, 0.1% Triton-X-100, 1% v/v phosphatase, inhibitor cocktail II [EMD/Calbiochem, #524625]), sonicated using a tip, sonicator, and Dounce homogenized. Lysate was cleared by centrifugation, at 16,000 g for 15 min., was gel filtered (BioRad 10DG) and MnCl2 was then added to a final concentration of 20 mM before treatment with the test compound and probe labeling. […] All compound treatments were performed at room temperature.
(§3) Acyl phosphate ATP probe (AX9989) labeling reactions were performed at room temperature with a final probe concentration of 5 μM after a 15 min pre-incubation of lysate with a test compound. All reactions were performed in duplicate, using 445 μl/sample at 5 mg/ml. Probe-labeled lysates were denatured and reduced (6 M urea, 10 mM DTT, 65° C., 15 min), alkylated (40 mM iodoacetamide, 37° C., 30 min, and gel filtered (Sephadex G25) into 10 mM ammonium bicarbonate, 2 M urea, 5 mM methionine. The desalted protein mixture was digested with trypsin (0.015 mg/ml) for 1 hr at 37° C., and desthiobiotinylated peptides were captured using a […] high-capacity streptavidin resin (Thermo Scientific). Captured peptides were then washed extensively using 150 μl/wash with three different wash buffers: (A) 3 times with 1% triton, 0.5% tergitol, 1 mM EDTA in PBS; (B) 18 times with PBS; and (C) 8 times with HPLC grade water. Peptides were eluted from the streptavidin beads using two 35-μL washes of a 50% CH3CN/water mixture containing 0.1% TFA at room temperature.
(§4) Kinase active site peptides were identified and quantified using LC/MS. Percent inhibition was calculated as the normalized decrease in the ESI-MS fragment intensities of probe-labeled peptides in samples incubated with the test compound compared to those without.

TAO2 = target: T2, TAO2 (Homo sapiens, UniProt Q9UL54); assay: Probe-based (AX9989) kinase profiling in Jurkat lysate: TAO2; conditions: screening concentration 1.0 μM; read-out: Kinase inhibition % at indicated screening concentration: TAO2
T2 construct: screened for activity against several kinases in Jurkat cells; endogenous in cells; host or cells: Jurkat cell lysate
T2 sequence (Q9UL54 1-1235): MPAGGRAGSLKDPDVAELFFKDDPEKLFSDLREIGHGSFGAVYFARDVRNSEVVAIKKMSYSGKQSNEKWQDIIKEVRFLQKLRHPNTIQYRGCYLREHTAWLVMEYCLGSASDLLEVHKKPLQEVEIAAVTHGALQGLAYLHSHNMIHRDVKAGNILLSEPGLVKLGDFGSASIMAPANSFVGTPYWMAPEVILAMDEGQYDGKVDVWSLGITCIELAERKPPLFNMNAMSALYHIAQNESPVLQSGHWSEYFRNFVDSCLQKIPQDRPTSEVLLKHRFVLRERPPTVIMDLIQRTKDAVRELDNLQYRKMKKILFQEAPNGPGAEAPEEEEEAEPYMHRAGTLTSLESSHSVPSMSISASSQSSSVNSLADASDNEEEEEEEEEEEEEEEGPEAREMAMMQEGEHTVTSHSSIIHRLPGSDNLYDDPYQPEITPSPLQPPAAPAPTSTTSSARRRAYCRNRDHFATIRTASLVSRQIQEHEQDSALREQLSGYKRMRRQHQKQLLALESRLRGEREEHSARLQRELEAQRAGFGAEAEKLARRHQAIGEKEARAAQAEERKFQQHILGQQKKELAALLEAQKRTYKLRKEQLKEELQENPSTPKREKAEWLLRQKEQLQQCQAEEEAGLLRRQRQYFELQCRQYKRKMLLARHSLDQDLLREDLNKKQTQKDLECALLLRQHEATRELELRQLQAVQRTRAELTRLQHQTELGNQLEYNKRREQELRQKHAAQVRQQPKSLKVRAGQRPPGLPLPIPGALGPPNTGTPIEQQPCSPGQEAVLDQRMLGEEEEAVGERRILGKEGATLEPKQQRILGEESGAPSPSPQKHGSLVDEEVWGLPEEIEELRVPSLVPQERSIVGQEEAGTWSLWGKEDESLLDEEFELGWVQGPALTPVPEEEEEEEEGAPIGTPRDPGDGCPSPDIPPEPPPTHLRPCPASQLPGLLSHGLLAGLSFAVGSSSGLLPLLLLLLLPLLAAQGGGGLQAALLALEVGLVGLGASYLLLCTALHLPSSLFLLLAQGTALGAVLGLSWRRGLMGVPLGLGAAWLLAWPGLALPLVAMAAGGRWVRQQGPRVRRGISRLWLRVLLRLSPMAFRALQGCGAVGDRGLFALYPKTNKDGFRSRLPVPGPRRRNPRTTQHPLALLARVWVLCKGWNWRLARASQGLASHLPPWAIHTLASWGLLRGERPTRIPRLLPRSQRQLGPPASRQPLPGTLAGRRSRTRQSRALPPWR
Protocol: as §1, §2, §3, §4

AMPKa1 or AMPKa2 = assay: Probe-based (AX9989) kinase profiling in Jurkat lysate: AMPKa1 or AMPKa2; conditions: screening concentration 1.0 μM
Protocol: as §1, §2, §3, §4

ERK5 = target: T3, ERK5 (Homo sapiens, UniProt Q13164); assay: Probe-based (AX9989 acyl phosphate ATP probe) kinase profiling in Jurkat lysate: ERK5; conditions: for IC50: calculated from percent inhibition of AX9989 labeling and the screening concentration, Jurkat lysate; for inhibition at 1 µM: screening concentration 1.0 μM, read-out: Kinase inhibition % at indicated screening concentration: ERK5
T3 construct: screened for activity against several kinases in Jurkat cells; endogenous in cells; host or cells: Jurkat cell lysate
T3 sequence (Q13164 whole entry): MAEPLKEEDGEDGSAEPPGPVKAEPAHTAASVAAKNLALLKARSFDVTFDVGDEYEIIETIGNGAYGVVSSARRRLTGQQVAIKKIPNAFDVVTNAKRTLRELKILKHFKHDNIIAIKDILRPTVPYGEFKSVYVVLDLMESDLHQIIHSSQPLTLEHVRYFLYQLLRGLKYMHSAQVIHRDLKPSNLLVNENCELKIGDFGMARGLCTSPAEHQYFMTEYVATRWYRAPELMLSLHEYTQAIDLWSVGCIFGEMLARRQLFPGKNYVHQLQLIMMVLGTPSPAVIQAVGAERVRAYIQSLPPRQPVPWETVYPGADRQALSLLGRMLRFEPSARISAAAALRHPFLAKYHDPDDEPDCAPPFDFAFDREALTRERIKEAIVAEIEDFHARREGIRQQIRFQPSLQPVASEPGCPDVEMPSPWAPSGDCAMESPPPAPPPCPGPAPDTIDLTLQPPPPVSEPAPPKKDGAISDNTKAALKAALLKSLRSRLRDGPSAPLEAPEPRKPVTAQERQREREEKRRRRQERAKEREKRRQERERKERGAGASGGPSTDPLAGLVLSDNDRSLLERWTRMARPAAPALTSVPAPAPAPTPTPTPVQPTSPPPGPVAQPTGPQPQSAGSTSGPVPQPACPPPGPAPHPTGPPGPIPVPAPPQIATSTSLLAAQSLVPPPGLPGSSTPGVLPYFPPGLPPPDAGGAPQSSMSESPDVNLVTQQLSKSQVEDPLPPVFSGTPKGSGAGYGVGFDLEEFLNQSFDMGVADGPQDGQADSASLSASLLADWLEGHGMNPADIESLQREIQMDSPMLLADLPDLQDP
Protocol: as §1, §2, §3, §4
ERK5 IC50 values were calculated from the percent inhibition and the screening concentration.

ABL or ARG = assay: Probe-based (AX9989) kinase profiling in Jurkat lysate: ABL or ARG; conditions: screening concentration 1.0 μM
Protocol: as §1, §2, §3, §4

JAK1 = target: T4, JAK1 (Homo sapiens, UniProt P23458); assay: Probe-based (AX9989) kinase profiling in Jurkat lysate: JAK1; conditions: screening concentration 1.0 μM; read-out: Kinase inhibition % at indicated screening concentration: JAK1
T4 construct: screened for activity against several kinases in Jurkat cells; endogenous in cells; host or cells: Jurkat cell lysate
T4 sequence (P23458 whole entry): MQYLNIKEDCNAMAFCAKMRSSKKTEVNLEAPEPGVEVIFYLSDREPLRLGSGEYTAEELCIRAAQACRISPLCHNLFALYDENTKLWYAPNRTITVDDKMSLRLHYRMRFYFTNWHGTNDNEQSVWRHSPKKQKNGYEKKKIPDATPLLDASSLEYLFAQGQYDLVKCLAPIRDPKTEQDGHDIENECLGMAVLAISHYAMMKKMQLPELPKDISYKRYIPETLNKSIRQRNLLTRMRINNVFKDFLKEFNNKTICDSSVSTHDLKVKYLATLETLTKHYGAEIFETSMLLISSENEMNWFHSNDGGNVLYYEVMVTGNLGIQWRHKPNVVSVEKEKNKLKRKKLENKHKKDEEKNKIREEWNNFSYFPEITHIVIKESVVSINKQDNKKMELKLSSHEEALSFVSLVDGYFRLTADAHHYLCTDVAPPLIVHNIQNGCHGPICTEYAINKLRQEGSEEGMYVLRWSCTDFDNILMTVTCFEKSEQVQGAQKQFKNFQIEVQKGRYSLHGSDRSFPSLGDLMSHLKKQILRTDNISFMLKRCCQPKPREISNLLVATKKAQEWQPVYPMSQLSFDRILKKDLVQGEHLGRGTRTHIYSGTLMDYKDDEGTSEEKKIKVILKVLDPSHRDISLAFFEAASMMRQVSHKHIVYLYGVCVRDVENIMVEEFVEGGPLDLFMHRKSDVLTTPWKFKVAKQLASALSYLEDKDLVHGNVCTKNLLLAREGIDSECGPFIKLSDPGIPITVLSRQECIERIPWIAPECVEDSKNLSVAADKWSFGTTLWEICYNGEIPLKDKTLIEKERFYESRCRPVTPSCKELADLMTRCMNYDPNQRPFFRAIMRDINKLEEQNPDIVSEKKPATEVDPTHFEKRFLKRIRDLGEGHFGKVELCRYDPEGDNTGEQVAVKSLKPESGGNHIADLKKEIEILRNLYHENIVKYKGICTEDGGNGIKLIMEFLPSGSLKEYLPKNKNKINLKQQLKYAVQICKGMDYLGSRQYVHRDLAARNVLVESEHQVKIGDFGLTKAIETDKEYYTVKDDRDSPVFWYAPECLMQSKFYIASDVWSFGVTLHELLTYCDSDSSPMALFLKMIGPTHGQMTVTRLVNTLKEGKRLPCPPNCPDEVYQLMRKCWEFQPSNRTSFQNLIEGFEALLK
Protocol: as §1, §2, §3, §4

AurB or AurC = assay: Probe-based (AX9989) kinase profiling in Jurkat lysate: AurB or AurC; conditions: screening concentration 1.0 μM
Protocol: as §1, §2, §3, §4

AurA = target: T5, AurA (Homo sapiens, UniProt O14965); assay: Probe-based (AX9989) kinase profiling in Jurkat lysate: AurA; conditions: screening concentration 1.0 μM; read-out: Kinase inhibition % at indicated screening concentration: AurA
T5 construct: screened for activity against several kinases in Jurkat cells; endogenous in cells; host or cells: Jurkat cell lysate
T5 sequence (O14965 1-403): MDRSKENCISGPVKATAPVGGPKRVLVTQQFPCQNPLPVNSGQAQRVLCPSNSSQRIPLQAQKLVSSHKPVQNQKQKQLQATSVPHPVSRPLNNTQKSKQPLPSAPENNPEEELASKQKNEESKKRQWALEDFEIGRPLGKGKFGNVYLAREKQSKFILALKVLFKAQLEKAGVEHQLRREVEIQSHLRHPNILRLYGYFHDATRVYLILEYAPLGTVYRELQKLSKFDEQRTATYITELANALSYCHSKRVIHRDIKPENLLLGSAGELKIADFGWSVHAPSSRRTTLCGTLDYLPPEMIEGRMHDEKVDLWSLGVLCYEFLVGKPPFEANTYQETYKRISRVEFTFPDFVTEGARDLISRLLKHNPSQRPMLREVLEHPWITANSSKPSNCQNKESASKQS
Protocol: as §1, §2, §3, §4

| SMILES | inhibition at 1 µM (ACK) [%] | inhibition at 1 µM (TAO2) [%] | Kinase inhibition % at indicated screening concentration: AMPKa1 or AMPKa2 (AMPKa1 or AMPKa2) | IC50 (ERK5) [µM] | inhibition at 1 µM (ERK5) [%] | Kinase inhibition % at indicated screening concentration: ABL or ARG (ABL or ARG) | inhibition at 1 µM (JAK1) [%] | Kinase inhibition % at indicated screening concentration: AurB or AurC (AurB or AurC) | inhibition at 1 µM (AurA) [%] |
| --- | --- | --- | --- | --- | --- | --- | --- | --- | --- |
| CCOc1cc(C(=O)N2CCC(N3CCCC3)CC2)ccc1Nc1cc2c(cn1)N(C)C(=O)c1scnc1N2C [Compound 34] | ≤ 35 | ≤ 35 | E (E is ≦35%) | – | > 90 | E (E is ≦35%) | ≤ 35 | E (E is ≦35%) | ≤ 35 |
| COc1ccc(C(=O)O)cc1Nc1cc2c(cn1)N(C)C(=O)c1ccccc1N2C [Compound 36] | ≤ 35 | ≤ 35 | E (E is ≦35%) | > 0.5 | 35 to 50 | E (E is ≦35%) | ≤ 35 | E (E is ≦35%) | ≤ 35 |
| Cc1cc(O)ccc1Nc1cc2c(cn1)N(C)C(=O)c1ccccc1N2C [Compound 38] | ≤ 35 | ≤ 35 | E (E is ≦35%) | 0.101 to 0.5 | 50 to 75 | E (E is ≦35%) | ≤ 35 | E (E is ≦35%) | ≤ 35 |
| CN1C(=O)c2ccccc2N(C)c2cc(N[C@H]3CC[C@H](NC(=O)N4CCCC4)CC3)ncc21 [Compound 60] | ≤ 35 | ≤ 35 | E (E is ≦35%) | 0.101 to 0.5 | 75 to 90 | E (E is ≦35%) | ≤ 35 | E (E is ≦35%) | ≤ 35 |
| CN1C(=O)C2CCCCC2N(C)c2cc(NC3CCC(O)CC3)ncc21 (centres unmarked) [Compound 76] | ≤ 35 | ≤ 35 | E (E is ≦35%) | > 0.5 | ≤ 35 | E (E is ≦35%) | ≤ 35 | E (E is ≦35%) | ≤ 35 |
| CN(C)CCn1cc(Nc2cc3c(cn2)N(C)C(=O)c2ccccc2N3C)cn1 [Compound 77] | ≤ 35 | 35 to 50 | E (E is ≦35%) | 0.101 to 0.5 | 75 to 90 | E (E is ≦35%) | ≤ 35 | B (B is >75% to ≦90%) | 50 to 75 |

The next lines start with the values.

| inhibition at 1 µM (ACK) [%] | inhibition at 1 µM (TAO2) [%] | Kinase inhibition % at indicated screening concentration: AMPKa1 or AMPKa2 (AMPKa1 or AMPKa2) | IC50 (ERK5) [µM] | inhibition at 1 µM (ERK5) [%] | Kinase inhibition % at indicated screening concentration: ABL or ARG (ABL or ARG) | inhibition at 1 µM (JAK1) [%] | Kinase inhibition % at indicated screening concentration: AurB or AurC (AurB or AurC) | inhibition at 1 µM (AurA) [%] | SMILES |
| --- | --- | --- | --- | --- | --- | --- | --- | --- | --- |
| ≤ 35 | ≤ 35 | E (E is ≦35%) | > 0.5 | 50 to 75 | E (E is ≦35%) | ≤ 35 | E (E is ≦35%) | ≤ 35 | COc1ccccc1Nc1cc2c(cn1)N(C)C(=O)c1ccccc1N2C [Compound 19] |
| ≤ 35 | ≤ 35 | E (E is ≦35%) | 0.101 to 0.5 | 75 to 90 | E (E is ≦35%) | ≤ 35 | E (E is ≦35%) | ≤ 35 | Cc1nn(C)cc1Nc1cc2c(cn1)N(C)C(=O)c1ccccc1N2C [Compound 22] |
| ≤ 35 | ≤ 35 | E (E is ≦35%) | > 0.5 | 50 to 75 | E (E is ≦35%) | ≤ 35 | E (E is ≦35%) | ≤ 35 | Cc1ccccc1Nc1cc2c(cn1)N(C)C(=O)c1ccccc1N2C [Compound 58] |
